Values quoted from earlier work, collected in patent US8597904B2, “Pharmaceutical compositions for the treatment of conditions responsive to proteasome inhibition” (priority 2007, dated 2013).

System: cells colonized by powdery mildew in wheat
Settings: literature (Amrein 2004; Waspi 1998-2001); cited from earlier work

CC(C)[C@H](NC(=O)N[C@H](C(=O)N[C@H]1/C=C/CCNC(=O)/C=C/[C@H](C(C)C)NC1=O)C(C)C)C(=O)O [syringolin A]
hypersensitive cell death: induce hypersensitive death of cells colonized by powdery mildew in wheat
